According to patent US20250101023A1, “HETEROARYL DERIVATIVE AND USES THEREOF” (IUCF-HYU (INDUSTRY-UNIVERSITY COOPERATION FOUNDATION …, priority 2022, published 2025):

Tests used:
PDGFRa = PDGFRa (Homo sapiens (Human), UniProt P16234); assay: Kinome-wide profiling; format: biochemical; conditions: read-out: % Residual Activity (mean)
FGFR4 = FGFR4 (Homo sapiens (Human), UniProt P22455); assay: Kinome-wide profiling; format: biochemical; conditions: read-out: % Residual Activity (mean)
PHKg1 = PHKg1 (Homo sapiens (Human), UniProt Q16816); assay: Kinome-wide profiling; format: biochemical; conditions: read-out: % Residual Activity (mean)
IKKa/CHUK = IKKa/CHUK (Homo sapiens (Human), UniProt O15111); assay: Kinome-wide profiling; format: biochemical; conditions: read-out: % Residual Activity (mean)
CDK5/P25 = CDK5/P25 (Homo sapiens (Human), UniProt Q00535); assay: Kinome-wide profiling; format: biochemical; conditions: read-out: % Residual Activity (mean)
BRAF = BRAF (Homo sapiens (Human), UniProt P15056); assay: Kinome-wide profiling; format: biochemical; conditions: read-out: % Residual Activity (mean)
CLK1 = CLK1 (Homo sapiens (Human), UniProt P49759); assay: Kinome-wide profiling; format: biochemical; conditions: read-out: % Residual Activity (mean)
CLK2 = CLK2 (Homo sapiens (Human), UniProt P49760); assay: Kinome-wide profiling; format: biochemical; conditions: read-out: % Residual Activity (mean)
MAST3 = MAST3 (Homo sapiens (Human), UniProt O60307); assay: Kinome-wide profiling; format: biochemical; conditions: read-out: % Residual Activity (mean)
RET = RET (Homo sapiens (Human), UniProt P07949); assay: Kinome-wide profiling; format: biochemical; conditions: read-out: % Residual Activity (mean)
MELK = MELK (Homo sapiens (Human), UniProt Q14680); assay: Kinome-wide profiling; format: biochemical; conditions: read-out: % Residual Activity (mean)
ROCK2 = ROCK2 (Homo sapiens (Human), UniProt O75116); assay: Kinome-wide profiling; format: biochemical; conditions: read-out: % Residual Activity (mean)
MLK2/MAP3K10 = MLK2/MAP3K10 (Homo sapiens (Human), UniProt Q02779); assay: Kinome-wide profiling; format: biochemical; conditions: read-out: % Residual Activity (mean)
MYLK4 = MYLK4 (Homo sapiens (Human), UniProt Q86YV6); assay: Kinome-wide profiling; format: biochemical; conditions: read-out: % Residual Activity (mean)
MARK1 = MARK1 (Homo sapiens (Human), UniProt Q9P0L2); assay: Kinome-wide profiling; format: biochemical; conditions: read-out: % Residual Activity (mean)
MRCKb/CDC42BPB = MRCKb/CDC42BPB (Homo sapiens (Human), UniProt Q9Y5S2); assay: Kinome-wide profiling; format: biochemical; conditions: read-out: % Residual Activity (mean)
TESK1 = TESK1 (Homo sapiens (Human), UniProt Q15569); assay: Kinome-wide profiling; format: biochemical; conditions: read-out: % Residual Activity (mean)
RAF1 = assay: Kinome-wide profiling; format: biochemical, human; conditions: 10 μM
LCK = LCK (Homo sapiens (Human), UniProt P06239); assay: Kinome-wide profiling; format: biochemical; conditions: read-out: % Residual Activity (mean)
MST1/STK4 = MST1/STK4 (Homo sapiens (Human), UniProt Q13043); assay: Kinome-wide profiling; format: biochemical; conditions: read-out: % Residual Activity (mean)
MEK3 = MEK3 (Homo sapiens (Human), UniProt P46734); assay: Kinome-wide profiling; format: biochemical; conditions: read-out: % Residual Activity (mean)
DYRK3 = DYRK3 (Homo sapiens (Human), UniProt O43781); assay: Kinome-wide profiling; format: biochemical; conditions: read-out: % Residual Activity (mean)
CDK9/cyclin K = CDK9/cyclin K (Homo sapiens (Human), UniProt P50750); assay: Kinome-wide profiling; format: biochemical; conditions: read-out: % Residual Activity (mean)
VRK1 = VRK1 (Homo sapiens (Human), UniProt Q99986); assay: Kinome-wide profiling; format: biochemical; conditions: read-out: % Residual Activity (mean)
RSK3 = RSK3 (Homo sapiens (Human), UniProt Q15349); assay: Kinome-wide profiling; format: biochemical; conditions: read-out: % Residual Activity (mean)
ERK7/MAPK15 = ERK7/MAPK15 (Homo sapiens (Human), UniProt Q8TD08); assay: Kinome-wide profiling; format: biochemical; conditions: read-out: % Residual Activity (mean)
MKK6 = MKK6 (Homo sapiens (Human), UniProt P52564); assay: Kinome-wide profiling; format: biochemical; conditions: read-out: % Residual Activity (mean)
JNK1 = JNK1 (Homo sapiens (Human), UniProt P45983); assay: Kinome-wide profiling; format: biochemical; conditions: read-out: % Residual Activity (mean)
CSK = CSK (Homo sapiens (Human), UniProt P41240); assay: Kinome-wide profiling; format: biochemical; conditions: read-out: % Residual Activity (mean)
DRAK1/STK17A = DRAK1/STK17A (Homo sapiens (Human), UniProt Q9UEE5); assay: Kinome-wide profiling; format: biochemical; conditions: read-out: % Residual Activity (mean)
[1] = test system: 371 human wild-type kinases; assay: Kinome-wide inhibitory activity profiling (panel summary); format: biochemical; conditions: 10 μM; CDK1, 2, 3, 5, 7, 9, 17, 18 complexes, LKB1, EPHA3/4/5/6, EPHB2, DYRK1A/B, MAK, MYLK4, GSK3b, FES, CHK2, PAK5, ERK1
CDK9/cyclin T1 = CDK9/cyclin T1 (Homo sapiens (Human), UniProt P50750); assay: Kinome-wide profiling; format: biochemical; conditions: read-out: % Residual Activity (mean)
CDK3/cyclin E2 = CDK3/cyclin E2 (Homo sapiens (Human), UniProt Q00526); assay: Kinome-wide profiling; format: biochemical; conditions: read-out: % Residual Activity (mean)
PKAcg = PKAcg (Homo sapiens (Human), UniProt P22612); assay: Kinome-wide profiling; format: biochemical; conditions: read-out: % Residual Activity (mean)
MARK2/PAR-1Ba = MARK2/PAR-1Ba (Homo sapiens, UniProt Q7KZI7); assay: Kinome-wide profiling; format: biochemical; conditions: read-out: % Residual Activity (mean)
TYRO3/SKY = TYRO3/SKY (Homo sapiens (Human), UniProt Q06418); assay: Kinome-wide profiling; format: biochemical; conditions: read-out: % Residual Activity (mean)
LIMK1 = LIMK1 (Homo sapiens (Human), UniProt P53667); assay: Kinome-wide profiling; format: biochemical; conditions: read-out: % Residual Activity (mean)
EPHB1 = EPHB1 (Homo sapiens (Human), UniProt P54762); assay: Kinome-wide profiling; format: biochemical; conditions: read-out: % Residual Activity (mean)

Chain of CDK3/cyclin E2 (Q00526 whole entry): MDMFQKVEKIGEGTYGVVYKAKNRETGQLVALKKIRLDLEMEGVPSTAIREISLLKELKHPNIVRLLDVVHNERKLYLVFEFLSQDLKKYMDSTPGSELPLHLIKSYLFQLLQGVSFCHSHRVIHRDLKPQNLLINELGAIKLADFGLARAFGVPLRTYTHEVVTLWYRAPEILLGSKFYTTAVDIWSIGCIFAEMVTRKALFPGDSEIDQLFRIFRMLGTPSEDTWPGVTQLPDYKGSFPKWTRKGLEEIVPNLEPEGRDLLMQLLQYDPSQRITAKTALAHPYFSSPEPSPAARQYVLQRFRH
Chain of CDK3/cyclin E2 (O96020 whole entry partner): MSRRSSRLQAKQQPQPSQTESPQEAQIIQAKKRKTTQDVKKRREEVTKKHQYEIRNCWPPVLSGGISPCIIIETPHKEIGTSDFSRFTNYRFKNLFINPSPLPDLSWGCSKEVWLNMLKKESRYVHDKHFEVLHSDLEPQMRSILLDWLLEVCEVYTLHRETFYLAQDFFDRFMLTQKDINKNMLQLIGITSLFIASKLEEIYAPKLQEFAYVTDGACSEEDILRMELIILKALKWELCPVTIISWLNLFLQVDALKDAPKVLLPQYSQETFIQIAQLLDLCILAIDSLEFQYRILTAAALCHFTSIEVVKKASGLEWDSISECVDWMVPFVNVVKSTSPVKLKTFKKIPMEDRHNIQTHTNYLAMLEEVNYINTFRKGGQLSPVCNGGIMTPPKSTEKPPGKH
Chain of CLK2 (P49760 whole entry): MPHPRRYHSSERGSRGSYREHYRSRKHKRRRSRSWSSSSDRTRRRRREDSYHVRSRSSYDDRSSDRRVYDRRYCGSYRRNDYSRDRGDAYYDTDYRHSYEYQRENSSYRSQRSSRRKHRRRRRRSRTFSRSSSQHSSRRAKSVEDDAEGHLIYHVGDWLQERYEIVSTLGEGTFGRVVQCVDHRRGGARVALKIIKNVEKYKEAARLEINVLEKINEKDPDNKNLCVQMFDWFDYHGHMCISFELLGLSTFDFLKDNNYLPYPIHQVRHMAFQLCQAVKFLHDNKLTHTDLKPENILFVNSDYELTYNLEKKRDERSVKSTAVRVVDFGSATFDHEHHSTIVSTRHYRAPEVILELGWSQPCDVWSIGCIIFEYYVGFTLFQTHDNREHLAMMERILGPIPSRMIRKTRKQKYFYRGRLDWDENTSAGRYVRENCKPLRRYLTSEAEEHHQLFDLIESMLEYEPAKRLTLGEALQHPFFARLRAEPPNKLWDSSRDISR
Chain of RET (P07949 29-1114): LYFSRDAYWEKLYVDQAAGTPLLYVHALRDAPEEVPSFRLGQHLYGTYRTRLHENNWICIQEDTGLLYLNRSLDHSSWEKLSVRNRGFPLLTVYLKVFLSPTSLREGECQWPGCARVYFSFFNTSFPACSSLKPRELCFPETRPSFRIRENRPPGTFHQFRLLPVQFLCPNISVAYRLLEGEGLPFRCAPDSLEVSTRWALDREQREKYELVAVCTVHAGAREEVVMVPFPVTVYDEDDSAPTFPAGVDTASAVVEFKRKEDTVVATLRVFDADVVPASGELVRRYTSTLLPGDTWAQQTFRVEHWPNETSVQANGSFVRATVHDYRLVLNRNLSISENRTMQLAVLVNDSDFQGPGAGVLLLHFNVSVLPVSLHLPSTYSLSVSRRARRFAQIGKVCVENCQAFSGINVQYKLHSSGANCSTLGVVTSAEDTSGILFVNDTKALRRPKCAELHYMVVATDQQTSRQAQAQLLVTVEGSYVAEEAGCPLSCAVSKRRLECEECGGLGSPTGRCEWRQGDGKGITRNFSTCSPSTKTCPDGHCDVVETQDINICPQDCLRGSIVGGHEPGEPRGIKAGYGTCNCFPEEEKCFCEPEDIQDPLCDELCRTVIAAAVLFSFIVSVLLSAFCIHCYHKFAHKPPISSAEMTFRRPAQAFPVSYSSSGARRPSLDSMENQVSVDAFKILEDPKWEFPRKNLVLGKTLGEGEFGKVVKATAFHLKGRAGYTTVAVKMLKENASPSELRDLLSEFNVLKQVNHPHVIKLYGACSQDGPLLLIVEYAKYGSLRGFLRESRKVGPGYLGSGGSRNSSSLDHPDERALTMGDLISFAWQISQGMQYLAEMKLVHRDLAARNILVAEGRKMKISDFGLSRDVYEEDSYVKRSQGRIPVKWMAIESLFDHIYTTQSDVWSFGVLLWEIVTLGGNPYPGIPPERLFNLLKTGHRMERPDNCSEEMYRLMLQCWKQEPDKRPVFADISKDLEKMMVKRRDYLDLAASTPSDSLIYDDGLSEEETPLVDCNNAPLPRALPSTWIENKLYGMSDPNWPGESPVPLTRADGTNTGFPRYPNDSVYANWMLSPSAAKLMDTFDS
Chain of DRAK1/STK17A (Q9UEE5 whole entry): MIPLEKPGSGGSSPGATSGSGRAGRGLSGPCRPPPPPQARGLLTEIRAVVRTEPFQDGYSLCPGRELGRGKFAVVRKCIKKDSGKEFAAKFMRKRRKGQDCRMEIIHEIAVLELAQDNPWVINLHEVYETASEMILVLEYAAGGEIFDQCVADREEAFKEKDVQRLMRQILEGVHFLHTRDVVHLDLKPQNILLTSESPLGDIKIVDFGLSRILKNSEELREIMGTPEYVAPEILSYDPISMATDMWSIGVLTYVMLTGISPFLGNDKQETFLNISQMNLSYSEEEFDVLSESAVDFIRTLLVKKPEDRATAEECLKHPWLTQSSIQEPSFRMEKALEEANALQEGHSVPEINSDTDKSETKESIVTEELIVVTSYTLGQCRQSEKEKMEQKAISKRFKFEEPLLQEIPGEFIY
Chain of MAST3 (O60307 whole entry): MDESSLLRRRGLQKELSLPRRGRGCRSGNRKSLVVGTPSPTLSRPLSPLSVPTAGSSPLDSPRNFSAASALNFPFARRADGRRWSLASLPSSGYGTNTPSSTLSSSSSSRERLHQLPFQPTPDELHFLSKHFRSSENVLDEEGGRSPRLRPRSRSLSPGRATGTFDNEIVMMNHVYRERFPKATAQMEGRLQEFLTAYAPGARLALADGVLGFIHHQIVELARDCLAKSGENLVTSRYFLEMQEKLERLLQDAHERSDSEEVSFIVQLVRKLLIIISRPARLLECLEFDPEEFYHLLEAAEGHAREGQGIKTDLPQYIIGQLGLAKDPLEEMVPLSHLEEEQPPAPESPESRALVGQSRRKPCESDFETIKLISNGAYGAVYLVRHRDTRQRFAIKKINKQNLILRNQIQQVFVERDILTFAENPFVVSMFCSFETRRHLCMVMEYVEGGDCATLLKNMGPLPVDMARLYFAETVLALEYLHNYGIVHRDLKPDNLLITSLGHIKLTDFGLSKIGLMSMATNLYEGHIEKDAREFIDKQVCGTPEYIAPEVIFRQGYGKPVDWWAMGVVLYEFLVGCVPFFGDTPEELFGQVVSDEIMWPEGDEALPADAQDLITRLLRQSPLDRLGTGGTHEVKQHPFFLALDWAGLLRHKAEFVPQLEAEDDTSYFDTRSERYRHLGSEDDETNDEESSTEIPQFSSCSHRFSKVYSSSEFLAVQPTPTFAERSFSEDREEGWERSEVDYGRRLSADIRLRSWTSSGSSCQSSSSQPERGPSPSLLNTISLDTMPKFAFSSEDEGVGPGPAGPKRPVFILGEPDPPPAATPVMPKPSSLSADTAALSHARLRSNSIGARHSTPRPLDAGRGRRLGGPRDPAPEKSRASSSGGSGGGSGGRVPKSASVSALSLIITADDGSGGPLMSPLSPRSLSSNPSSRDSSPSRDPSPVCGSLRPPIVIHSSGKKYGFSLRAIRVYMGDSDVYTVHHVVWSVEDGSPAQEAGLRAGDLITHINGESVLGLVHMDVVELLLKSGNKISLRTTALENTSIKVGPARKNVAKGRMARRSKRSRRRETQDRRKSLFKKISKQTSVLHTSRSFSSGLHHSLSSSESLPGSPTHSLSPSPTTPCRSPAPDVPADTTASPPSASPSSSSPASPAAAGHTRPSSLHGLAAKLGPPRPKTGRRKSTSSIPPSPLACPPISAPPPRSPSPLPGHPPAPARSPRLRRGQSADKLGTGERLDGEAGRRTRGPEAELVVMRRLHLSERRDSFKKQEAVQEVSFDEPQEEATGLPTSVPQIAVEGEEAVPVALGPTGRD
Chain of JNK1 (P45983 whole entry): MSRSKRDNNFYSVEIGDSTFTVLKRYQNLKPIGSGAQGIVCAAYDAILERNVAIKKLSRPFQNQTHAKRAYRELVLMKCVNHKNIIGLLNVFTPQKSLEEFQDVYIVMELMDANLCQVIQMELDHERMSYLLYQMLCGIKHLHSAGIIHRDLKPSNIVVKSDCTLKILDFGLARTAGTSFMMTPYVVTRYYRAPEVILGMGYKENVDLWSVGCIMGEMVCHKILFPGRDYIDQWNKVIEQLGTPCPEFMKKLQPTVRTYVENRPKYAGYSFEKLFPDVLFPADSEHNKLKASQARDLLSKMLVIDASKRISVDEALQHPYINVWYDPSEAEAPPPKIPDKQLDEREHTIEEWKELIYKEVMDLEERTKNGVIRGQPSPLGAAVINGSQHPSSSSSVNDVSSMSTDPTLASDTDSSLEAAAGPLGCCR
Chain of PKAcg (P22612 whole entry): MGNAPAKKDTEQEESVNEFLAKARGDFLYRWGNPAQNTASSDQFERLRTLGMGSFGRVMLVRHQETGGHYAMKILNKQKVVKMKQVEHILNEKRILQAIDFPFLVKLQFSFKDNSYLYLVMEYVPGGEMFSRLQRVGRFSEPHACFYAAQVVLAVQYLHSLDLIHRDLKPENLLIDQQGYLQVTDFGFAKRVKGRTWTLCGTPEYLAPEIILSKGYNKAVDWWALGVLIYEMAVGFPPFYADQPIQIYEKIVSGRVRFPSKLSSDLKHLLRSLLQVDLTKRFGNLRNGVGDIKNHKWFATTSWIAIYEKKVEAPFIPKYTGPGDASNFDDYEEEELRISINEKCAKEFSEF

For `CCn1cnc2c(NCc3ccc(-c4ccccn4)nc3)nc(-c3ccc(N)nc3)nc21` [Example 53, N-([2,2′-bipyridin]-5-ylmethyl)-2-(6-aminopyridin-3-yl)-9-ethyl-9H-purin-6-amine], the remaining activity at 10 µM (PDGFRa) was 52.8%, the remaining activity at 10 µM (FGFR4) was 87.4% and the remaining activity at 10 µM (PHKg1) was 16.5%. It also gave a remaining activity at 10 µM (IKKa/CHUK) of 71.5%, a remaining activity at 10 µM (CDK5/P25) of 1.6% and a remaining activity at 10 µM (BRAF) of 60.8%. For the same compound, the remaining activity at 10 µM (CLK1) was 13.7%, the remaining activity at 10 µM (CLK2) was 11.7% and the remaining activity at 10 µM (MAST3) was 39.3%. It also gave a remaining activity at 10 µM (RET) of 79.5%, a remaining activity at 10 µM (MELK) of 21.1% and a remaining activity at 10 µM (ROCK2) of 92.2%. The remaining activity at 10 µM (MLK2/MAP3K10) was 62.3%, the remaining activity at 10 µM (MYLK4) was 4.07% and the remaining activity at 10 µM (MARK1) was 81.5%. The remaining activity at 10 µM (MRCKb/CDC42BPB) was 99.3%, the remaining activity at 10 µM (TESK1) was 93.1% and the “% Residual Activity (mean)” value (RAF1) was 68.57%. For the same compound, the remaining activity at 10 µM (LCK) was 83.6%, the remaining activity at 10 µM (MST1/STK4) was 62.2% and the remaining activity at 10 µM (MEK3) was 73.5%. The remaining activity at 10 µM (DYRK3) was 58.6%, the remaining activity at 10 µM (CDK9/cyclin K) was 1.07% and the remaining activity at 10 µM (VRK1) was 87.3%. It also gave a remaining activity at 10 µM (RSK3) of 58%, a remaining activity at 10 µM (ERK7/MAPK15) of 13.5% and a remaining activity at 10 µM (MKK6) of 95.4%. It also gave a remaining activity at 10 µM (JNK1) of 41.6%, a remaining activity at 10 µM (CSK) of 54.8% and a remaining activity at 10 µM (DRAK1/STK17A) of 79.3%. For the same compound, the kinase inhibition [1] was ≥ 90%, the remaining activity at 10 µM (CDK9/cyclin T1) was 0.78% and the remaining activity at 10 µM (CDK3/cyclin E2) was 2.63%. It also gave a remaining activity at 10 µM (PKAcg) of 88.4%, a remaining activity at 10 µM (MARK2/PAR-1Ba) of 74.3% and a remaining activity at 10 µM (TYRO3/SKY) of 22.4%. For the same compound, the remaining activity at 10 µM (LIMK1) was 59.9% and the remaining activity at 10 µM (EPHB1) was 13.6%.
